{"source": "patent US20200139012A1", "about": "“METHODS AND MATERIALS FOR IMMUNOMODULATION OF TISSUE GRAFTS” (UNIVERSITY OF WYOMING, priority 2018, published 2020)", "key": {"[1]": {"conditions": "Table 1; cited from earlier work"}, "[2]": {"tested_on": "DRGs, motor neurons, and Schwann cells", "conditions": "72 h; for Measures in vitro tolerated concentrations on PN cells: rat", "experimental": "It is contemplated that delivery of immunosuppressive agents function within a favorable therapeutic window. PNs are comprised of three major nervous system cell types, motor neurons, sensory neurons, and Schwann cells. […] FIG. 1B illustrates data regarding the toxicity of tacrolimus to DRGs, motor neurons, and Schwann cells. FIG. 1C illustrates data regarding the toxicity of prednisolone to DRGs, motor neurons, and Schwann cells.\nCells (DRGs, motor neurons, and Schwann cells) were cultured for 72 hours in various concentration of the immunosuppressive drugs and viability was evaluated using the Alamar blue viability assay. ISV's were diluted into media using a maximum of 1% dimethylsulfoxide (DMSO).\nFIG. 2B illustrates data regarding the viability of DRGs, motor neurons, and Schwann cells cultured in about 10 μM tracrolimus with differing concentrations of prednisolone."}, "immune cells": {"tested_on": "immune cells", "conditions": "cited from earlier work; for in vitro effective concentration on immune cells: Table 1"}}}
{"compound": "C[C@]12C=CC(=O)C=C1CC[C@@H]1[C@@H]2[C@@H](O)C[C@@]2(C)[C@H]1CC[C@]2(O)C(=O)CO", "note": "[Prednisolone, prednisolone]", "values": [{"measurement": "Effective clinical plasma concentration", "setting": "[1]", "result": 277, "unit": "nM"}, {"measurement": "tolerated by the cells at doses up to", "setting": "[2]", "result": "up to 200 μM"}, {"measurement": "Measures in vitro tolerated concentrations on PN cells", "setting": "[2]", "result": 200, "unit": "µM"}, {"measurement": "in vitro effective concentration on immune cells", "setting": "immune cells", "result": 240, "unit": "nM"}, {"measurement": "effective dose for inhibiting activation and proliferation of immune cells", "setting": "immune cells", "result": "greater than 240 μM"}]}
{"compound": "C=CC[C@@H]1/C=C(\\C)C[C@H](C)C[C@H](OC)[C@H]2O[C@@](O)(C(=O)C(=O)N3CCCC[C@H]3C(=O)O[C@H](/C(C)=C/[C@@H]3CC[C@@H](O)[C@H](OC)C3)[C@H](C)[C@@H](O)CC1=O)[C@H](C)C[C@@H]2OC", "note": "[Tacrolimus, tacrolimus]", "values": [{"measurement": "Effective clinical plasma concentration", "setting": "[1]", "result": 21, "unit": "nM"}, {"measurement": "tolerated by the cells at doses up to", "setting": "[2]", "result": "10 to 25", "unit": "µM"}, {"measurement": "Measures in vitro tolerated concentrations on PN cells", "setting": "[2]", "result": "10 to 25", "unit": "µM"}, {"measurement": "in vitro effective concentration on immune cells", "setting": "immune cells", "result": "0.5 to 1.0", "unit": "nM"}, {"measurement": "effective dose for inhibiting activation and proliferation of immune cells", "setting": "immune cells", "result": "50 to 100", "unit": "µM"}]}
